{"source": "patent US20240238272A1", "about": "“TREATMENT OF ANTIPHOSPHOLIPID SYNDROME USING S-HYDROXYCHLOROQUINE” (Genovate Biotechnology Co. Ltd., priority 2021, published 2024)", "key": {"[1]": {"target": "T1, β2-GP1 and antibody binding (Homo sapiens, UniProt P02749)", "T1 construct": "THP-1 is a human peripheral blood monocyte that highly expresses β2-GP1; endogenous in cells; host or cells: THP-1 (human monocyte cell line): total lysate in the dot blot, whole cells in the ELISA", "T1 sequence (P02749 20-345)": "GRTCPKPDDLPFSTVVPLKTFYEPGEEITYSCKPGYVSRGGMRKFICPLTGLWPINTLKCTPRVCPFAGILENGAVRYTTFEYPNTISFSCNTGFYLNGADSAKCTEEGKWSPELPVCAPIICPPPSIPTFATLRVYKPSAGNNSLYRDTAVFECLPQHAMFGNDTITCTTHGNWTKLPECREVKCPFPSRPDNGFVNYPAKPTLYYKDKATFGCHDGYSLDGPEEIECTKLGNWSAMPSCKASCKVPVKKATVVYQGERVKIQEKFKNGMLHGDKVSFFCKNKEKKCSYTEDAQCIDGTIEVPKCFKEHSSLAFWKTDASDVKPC", "experiment": "Dot blot assay of β2-GP1 and antibody binding, THP-1 total lysate", "conditions": "10 mg/mL, mean ± S.E.M., triplicate", "method": "THP-1 is a human peripheral blood monocyte that highly expresses β2-GP1 and is associated with increased APS in patients. Before treating with HCQ, THP-1 cells were fixed in a 3.7% paraformaldehyde solution, blocked in a phosphate-buffered saline (PBS) containing 1% bovine serum albumin (BSA), and incubated with a mouse aPL antibody (A500-006A, Bethyl Laboratories, Montgomery, Texas). Cellular immunofluorescent staining was used to determine β2-GP1 expression.\nSeparate samples were prepared for a dot blot assay as follows: a THP-1 total lysate was loaded to a polyvinylidene difluoride membrane, blocked with PBS containing 1% BSA, and incubated with mouse anti-β2-GP1 A500-006A, together with S-HCQ, R-HCQ, or racemic HCQ, each at a concentration of 10 mg/mL. A control sample was obtained following the same procedure described above except that no HCQ was added.\n(§1) All assays above were performed in triplicate. Reported results are expressed as means±S.E.M. All statistical analyses were performed using a software under the trademark of GraphPad Prism® (Version 8.0. GraphPad Software Inc, San Diego, California). For comparisons between two groups, student's test was used. A p-value<0.05 was considered statistically significant."}, "[2]": {"target": "T2, β2-GP1 and antibody binding (THP-1 cells) (Homo sapiens, UniProt P02749)", "T2 construct": "THP-1 is a human peripheral blood monocyte that highly expresses β2-GP1; endogenous in cells; host or cells: THP-1 (human monocyte cell line): total lysate in the dot blot, whole cells in the ELISA", "T2 sequence (P02749 20-345)": "T1 sequence (P02749 20-345)", "experiment": "ELISA assay of β2-GP1-antibody binding to THP-1 membrane", "type": "cell-based", "method": "Subsequently, an ELISA assay was performed to determine whether S-HCQ or R-HCQ inhibiting binding of β2-GP1-antibody complexes to the THP-1 membrane. THP-1 cells thus treated were resuspended to a density of 3.6×10^5 cells/mL in a medium containing 80% RPMI-1640 (Thermo Fisher Scientific, Waltham, Massachusetts), 20% anti-β2-GP1 immunoglobulin G (“IgG”) (0.2 mg/mL) in HEPES-buffered saline (HBS, pH 7.45), and S-HCQ. Three samples were each prepared from a medium having a different S-HCQ concentration, i.e., 1 μg/mL, 2.5 μg/mL, or 5 μg/mL. A control sample was obtained following the same procedure described above except that no S-HCQ was added. Optical absorbance was measured at 450 nm.\nas §1"}, "[3]": {"system": "annexin V on THP-1 cell surfaces", "experiment": "Restoration of annexin A5 anticoagulant shield on THP-1 cells treated with anti-β2-GP1 IgG", "type": "cell-based, human", "conditions": "0.5 μg/mL HCQ; comparative sample without HCQ = 1", "method": "THP-1 cells were first maintained in a RPMI1640 medium (Thermo Fisher Scientific, Waltham, Massachusetts) containing 10% fetal bovine serum, 2 mM L-glutamine, and 50 U/mL penicillin-streptomycin antibiotics. They were then seeded at a density of 8×10^4 cells/well in a 96-well culture plate and were allowed to reach confluence. Subsequently, THP-1 cells were treated with anti-β2-GP1 IgG in the presence of 0.5 μg/mL HCQ. Levels of annexin V on cell surfaces were determined by optical absorbance after the IgG-treated THP-1 cells were rinsed with HBS-CaCl2) solution to remove free annexin V, leaving only annexin V that is attached to the cell surface.\nThree samples were prepared each with one of three HCQ (i.e., S-HCQ, R-HCQ, and racemic HCQ) solutions. A comparative sample was obtained following the same procedure described above except that HCQ was not added. A patient serum containing β2-GP1 antibody was used as a control sample."}, "[4]": {"system": "E-selectin", "experiment": "APS-related thrombosis mice model, serum expression level of E-selectin", "type": "in vivo", "conditions": "for Inhibition (E-selectin): relative to comparative group; for Thrombosis (E-selectin): serum expression level relative to comparative group", "method": "(§2) Venous thrombosis was induced in mice using an endothelial injury model. Mice were intravenously (IV) injected 7.5% FeCl3 (positive control), saline (negative control), or an APS-derived anti-β2GP1 antibody (from Patient 2) at a dosage of 100, 200, or 300 AU (test group). They were anesthetized 72 hours after the injection. The right femoral vein was exposed and pinched with a pressure of 1500 g/mm^2 to induce formation of a thrombus.\n(§3) Based on the APS animal model described above, R-HCQ and S-HCQ were administered to mice for reducing thrombosis. Mice were divided into 6 groups, each of which was injected with (1) IgG as a control group, (2) 100 AU of the anti-β2GPI antibody as a comparative group, (3) a combination of 100 AU of the anti-B2GPI antibody and 300 μg of S-HCQ as treatment group 3, (4) a combination of 100 AU of the anti-B2GPI antibody and 200 μg of S-HCQ as treatment group 4, (5) a combination of 100 AU of the anti-B2GPI antibody and 200 μg of R-HCQ as treatment group 5, or (6) a combination of 100 AU of the anti-β2GP1 antibody and 100 μg of R-HCQ as treatment group 6.\n(§4) Serum expression levels of E-selectin and VCAM-1, two biomarkers of APS-related thrombosis, were measured. Percentages of inhibition in treatment groups 3-6 were calculated based on the expression levels of E-selectin and VCAM-1 relative to the comparative group. A low expression level of E-selectin or VCAM-1 indicates high inhibition of thrombosis."}, "[5]": {"system": "VCAM-1", "experiment": "APS-related thrombosis mice model, serum expression level of VCAM-1", "type": "in vivo", "conditions": "for Inhibition (VCAM-1): relative to comparative group; for Thrombosis (VCAM-1): serum expression level relative to comparative group", "method": "as §2, §3, §4"}, "[6]": {"system": "APS-related thrombosis (E-selectin and VCAM-1)", "experiment": "APS-related thrombosis mice model, average of E-selectin and VCAM-1", "type": "in vivo", "method": "as §2, §3, §4"}, "[7]": {"system": "thrombosis induced by anti-β2GP1 antibody", "experiment": "APS-related thrombosis mice model, femoral vein pinch, clot formation", "type": "in vivo, C57BL/6 male mice", "method": "C57BL/6 male mice at ages of 8-12 weeks (purchased from BioLasco, Taiwan) were used in this study. All procedures were approved by the Institutional Animal Care Committee of Taipei Medical University. Venous thrombosis was induced in mice using an endothelial injury model. […] They were anesthetized 72 hours after the injection. The right femoral vein was exposed and pinched with a pressure of 1500 g/mm^2 to induce formation of a thrombus. […] As such, the anti-β2GP1 antibody was injected to a mouse at 100 AU for all studies below. Following the procedure described above, a mouse (i.e., HCQ-treated mouse) was injected with 100 AU of the anti-β2GP1 antibody from Patient 5 and 2000 μg racemic-HCQ (200 μl at 10 mg/ml). As a control, a group of mice (n=4; APS-induced mice) were injected with only 100 AU of the anti-β2GP1 antibody. After 72 hours, the right femoral vein of each mouse was exposed and pinched with a pressure of 1500 g/mm^2 to induce formation of a thrombus. Thrombosis time (in minute) was recorded. […] Clots were removed from the femoral vein after pinch for 5 minutes."}}}
{"smiles": "CCN(CCO)CCC[C@H](C)Nc1ccnc2cc(Cl)ccc12", "note": "[S-HCQ, S-(+)-hydroxychloroquine]", "values": [{"measurement": "inhibition of β2-GP1 and antibody binding", "setting": "[1]", "result": 97, "unit": "%"}, {"measurement": "inhibition rate of β2-GP1 and antibody binding", "setting": "[2]; 1 μg/mL", "result": 25, "unit": "%"}, {"measurement": "inhibition rate of β2-GP1 and antibody binding", "setting": "[2]; 2.5 μg/mL", "result": 60, "unit": "%"}, {"measurement": "inhibition rate of β2-GP1 and antibody binding", "setting": "[2]; 5 μg/mL", "result": 90, "unit": "%"}, {"measurement": "relative level of annexin V", "setting": "[3]", "result": 3.45}, {"measurement": "Inhibition (E-selectin)", "setting": "[4]; 200 μg", "result": 53.8, "unit": "%"}, {"measurement": "Thrombosis (E-selectin)", "setting": "[4]; 200 μg", "result": 46.2, "unit": "%"}, {"measurement": "Inhibition (E-selectin)", "setting": "[4]; 300 μg", "result": 59.4, "unit": "%"}, {"measurement": "Thrombosis (E-selectin)", "setting": "[4]; 300 μg", "result": 40.6, "unit": "%"}, {"measurement": "Inhibition (VCAM-1)", "setting": "[5]; 200 μg", "result": 49, "unit": "%"}, {"measurement": "Thrombosis (VCAM-1)", "setting": "[5]; 200 μg", "result": 50.9, "unit": "%"}, {"measurement": "Inhibition (VCAM-1)", "setting": "[5]; 300 μg", "result": 52, "unit": "%"}, {"measurement": "Thrombosis (VCAM-1)", "setting": "[5]; 300 μg", "result": 47.8, "unit": "%"}, {"measurement": "Inhibition Average", "setting": "[6]; 200 μg", "result": 51.4, "unit": "%"}, {"measurement": "Thrombosis Average", "setting": "[6]; 200 μg", "result": 48.55, "unit": "%"}, {"measurement": "Inhibition Average", "setting": "[6]; 300 μg", "result": 55.7, "unit": "%"}, {"measurement": "Thrombosis Average", "setting": "[6]; 300 μg", "result": 44.2, "unit": "%"}]}
{"smiles": "CCN(CCO)CCCC(C)Nc1ccnc2cc(Cl)ccc12", "note": "(racemic) [racemic HCQ, Hydroxychloroquine]", "values": [{"measurement": "inhibition at 10000 µg/mL", "setting": "[1]", "result": 80, "unit": "%"}, {"measurement": "relative level of annexin V", "setting": "[3]", "result": 3.09}, {"measurement": "thrombosis time", "setting": "[7]; 2000 μg with 100 AU anti-β2GP1 antibody, 72 hours after injection, healthy mice 5, APS-induced mice 2", "result": 5, "unit": "min"}, {"measurement": "thrombus size", "setting": "[7]; 2000 μg, clots removed after pinch for 5 minutes, versus mice without HCQ treatment", "result": "significantly reduced the thrombus size"}]}
{"smiles": "CCN(CCO)CCC[C@@H](C)Nc1ccnc2cc(Cl)ccc12", "note": "[R-HCQ, (R)-(−)-hydroxychloroquine]", "values": [{"measurement": "inhibition of β2-GP1 and antibody binding", "setting": "[1]", "result": 23, "unit": "%"}, {"measurement": "relative level of annexin V", "setting": "[3]", "result": 2.54}, {"measurement": "Inhibition (E-selectin)", "setting": "[4]; 100 μg", "result": 25.2, "unit": "%"}, {"measurement": "Thrombosis (E-selectin)", "setting": "[4]; 100 μg", "result": 74.8, "unit": "%"}, {"measurement": "Inhibition (E-selectin)", "setting": "[4]; 200 μg", "result": 30, "unit": "%"}, {"measurement": "Thrombosis (E-selectin)", "setting": "[4]; 200 μg", "result": 70, "unit": "%"}, {"measurement": "Inhibition (VCAM-1)", "setting": "[5]; 100 μg", "result": 16.3, "unit": "%"}, {"measurement": "Thrombosis (VCAM-1)", "setting": "[5]; 100 μg", "result": 83.7, "unit": "%"}, {"measurement": "Inhibition (VCAM-1)", "setting": "[5]; 200 μg", "result": 23, "unit": "%"}, {"measurement": "Thrombosis (VCAM-1)", "setting": "[5]; 200 μg", "result": 75, "unit": "%"}, {"measurement": "Inhibition Average", "setting": "[6]; 100 μg", "result": 20.75, "unit": "%"}, {"measurement": "Thrombosis Average", "setting": "[6]; 100 μg", "result": 79.25, "unit": "%"}, {"measurement": "Inhibition Average", "setting": "[6]; 200 μg", "result": 26.5, "unit": "%"}, {"measurement": "Thrombosis Average", "setting": "[6]; 200 μg", "result": 72.5, "unit": "%"}]}
